Test results taken from US20110092445A1, “Amyloid ß peptide analogues, oligomers thereof, processes for preparing and composi-tions comprising said analogues or oligomers, and their uses” (Abbott Laboratories, priority 2008, published 2011).
Bridges are numbered along the chain shown (N, C = ends). Where no end group is shown, it is not given here.

Columns and labels:
[1] = system: Aβ globulomer-specific antibody 7C6; assay: Dot blot analysis with monoclonal antibody 7C6; assay type: binding, murine; conditions: FIG. 8A
From the text: (§1) 1. (14C, 37C) N-Met Aβ(1-42) oligomer of example 4a 2. Thermolysin truncated (14C, 37C) N-Met Aβ(1-42) oligomer of example 5a 3. (15C, 36C) N-Met Aβ(1-42) oligomer of example 4b 4. Thermolysin truncated (15C, 36C) N-Met Aβ(1-42) oligomer of example 5b 5. (16C, 35C) N-Met Aβ(1-42) oligomer of example 4c 6. Thermolysin truncated (16C, 35C) N-Met Aβ(1-42) oligomer of example 5c 7. (17C, 34C) N-Met Aβ(1-42) oligomer of example 4d 8) Thermolysin truncated (17C, 34C) N-Met Aβ(1-42) oligomer of example 5d 9. (18C, 33C) N-Met Aβ(1-42) oligomer of example 4e 10. Thermolysin truncated (18C, 33C) N-Met Aβ(1-42) oligomer of example 5e 11. (19C, 32C) N-Met Aβ(1-42) oligomer of example 4f 12. Thermolysin truncated (19C, 32C) N-Met Aβ(1-42) oligomer of example 5f 13. (20C, 31C) N-Met Aβ(1-42) oligomer of example 4g 14. Thermolysin truncated (20C, 31C) N-Met Aβ(1-42) oligomer of example 5g 15. (21C, 30C) N-Met Aβ(1-42) oligomer of example 4h 16. Thermolysin truncated (21C, 30C) N-Met Aβ(1-42) oligomer of example 5h 17. (22C, 29C) N-Met Aβ(1-42) oligomer of example 4i 18. Thermolysin truncated (22C, 29C) N-Met Aβ(1-42) oligomer of example 5i 19. Aβ(1-42) globulomer of example 4j 20. Aβ(1-42) thermolysin truncated globulomer of example 5j
(§2) • Serial dilution of Aβ antigens in columns 1-20 in 20 mM NaH2PO4, 140 mM NaCl, pH 7.4+0.2 mg/ml BSA • 1) 10 pmol/μl • 2) 1 pmol/μl • 3) 0.1 pmol/μl • 4) 0.01 pmol/μl • 5) 0.001 pmol/μl
(§3) • TBS • 25 mM Tris/HCl-buffer pH 7.5 • +150 mM NaCl • TTBS • 25 mM Tris/HCl-buffer pH 7.5 • +150 mM NaCl • +0.05% Tween 20 • PBS+0.2 mg/ml BSA • 20 mM NaH2PO4 buffer pH 7.4 • +140 mM NaCl • +0.2 mg/ml BSA
(§4) • Either Rabbit sera samples or mouse monoclonal antibodies were used as Antibody solution I and prepared as in the following: • Rabbit sera samples (1:200 diluted in 20 ml 1% low fat milk in TBS) • Mouse monoclonal antibodies (diluted to 0.2 μg/ml in 20 ml 1% low fat milk in TBS)
(§5) • In the case Antibody solution I was Rabbit sera samples then Antibody solution II was Anti-Rabbit-AP. […]

[2] = system: polyclonal rabbit serum 5599; assay: Dot blot analysis with rabbit polyclonal antibody 5599; assay type: binding; conditions: FIG. 8B; serum shows high general background
From the text: as §1, §2, §3, §4, §5

[3] = system: Alzheimer Disease transgenic mice; conditions: active immunization, cited from earlier work
[4] = system: Aβ globulomer epitope specific antibody 10F11; assay: Immunoprecipitation with 10F11-Dynabeads and SELDI-MS detection; assay type: binding, murine; conditions: FIG. 10A/10B; isotype controls IgG2a, IgG2b
Protocol: (§6) A: Activation of Dynabeads with Monoclonal Mouse Antibodies • The stock-suspension of dynabeads (Dynabeads M-280 Sheep anti-Mouse IgG, Invitrogen; Cat. no.: 112.02) was shaken carefully to prevent foaming. • 1 mL was aseptically removed and transferred to a 1.5 mL reaction vial. • The dynabeads were washed 3 times 5 min with 1 mL immunoprecipitation (IP)-wash buffer (IP-wash-buffer: PBS (20 mM NaH2PO4, 140 mM NaCl, pH 7.4), 0.1% BSA). During the washing procedure the supernatant was carefully removed while the dynabeads were immobilized at the side of the reaction vial with a magnetic separator stand (MSS). • The washed dynabeads were incubated with 40 μg Aβ antibody in 1 mL PBS, 0.1% BSA • The activation was carried out by overnight incubation under shaking at 4° C. • The activated dynabeads were washed 4 times 30 min (again using the MSS) with 1 mL IP-wash buffer (PBS (20 mM NaH2PO4, 140 mM NaCl, pH 7.4), 0.1% BSA). • The activated dynabeads were resuspended with 1 mL PBS, 0.1% BSA, 0.02% NaAzide; vortexed and centrifuged briefly. • The antibody activated dynabeads were stored at 4° C. until further use. […]

[5] = system: Aβ globulomer epitope specific antibody 7C6; assay: Immunoprecipitation with 7C6-Dynabeads and SELDI-MS detection; assay type: binding, murine
Protocol: as §6

Substance | recognition by Aβ globulomer-specific antibody 7C6 in dot blot [1] | recognition by polyclonal rabbit serum 5599 in dot blot [2] | further results
Aβ(1-42) globulomer [example 4j] | do not detect | do not detect | 
Aβ(20-42) truncated globulomer: obtained by subjecting an Aβ(1-42) globulomer to thermolysin proteolysis (FAEDVGSNKGAIIGLMVGGVVIA; also: truncated globulomer) |  |  | reversal of deficits in novel object recognition task ([3]; AD transgenic mouse models): proven to reverse deficits in novel object recognition task; reversing cognitive defects in Alzheimer Disease transgenic mice [3]: effective in reversing cognitive defects
Disulfide-stabilized (17C, 34C) ARO 6-35)-amide oligomer (KCVFFAEDVGSNKGAIIGCM-NH2; disulfide 2-19; also: oligomer; UniProt P05067 687-706, looked up, variant L17C L34C) [example 4p] |  |  | recognition by 10F11 (immunoprecipitation, SELDI-MS) [4]: recognized; recognition by 7C6 (immunoprecipitation, SELDI-MS) ([5]; FIG. 10A/10B, isotype controls IgG2a, IgG2b): recognized; presence of the Aβ globulomer epitope (conclusion from immunoprecipitation) ([5]; immunoprecipitation with 7C6 and 10F11): contained the Aβ globulomer epitope
Thermolysin truncation of Aβ(1-42) globulomer [example 5j] | comparable recognition | comparable recognition | 
Thermolysin truncation of disulfide-stabilized (15C, 36C) N-Met Aβ(1-42) oligomer [example 5b] | only recognized by the polyclonal rabbit serum 5599 | recognized by the polyclonal rabbit serum 5599 | 
